Data published in patent publication US20090306133A1, “New Acetyl Coenzyme A Carboxylase (ACC) Inhibitors And Uses In Treatments Of Obesity And Diabetes Mellitus - 087” (ASTRAZENECA AB, priority 2007, published 2009).

Tests used:
[1] = target: Human recombinant Acetyl-CoA Carboxylase 1 (ACC1) (Homo sapiens, UniProt Q13085); assay: Assay Y: ACC1 inhibition, inorganic phosphate (Malachite Green); assay type: biochemical; settings: Assay Y: room temperature, 3 hr, 15 min preincubation
Summary of the method: (§1)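 Enzyme preincubated with compound 15 min before substrate addition; reaction run 3 h, then phosphate detected with Malachite Green at 670 nm after 10 min at room temperature. Triplicate 10-point titrations; IC50 by non-linear four-parameter curve fitting.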

[2] = target: Human recombinant Acetyl-CoA Carboxylase 2 (ACC2) (Homo sapiens, UniProt O00763); assay: Assay Y: ACC2 inhibition, inorganic phosphate (Malachite Green); assay type: biochemical; settings: Assay Y: room temperature, 3 hr, 15 min preincubation
Summary of the method: as §1

Chain of Human recombinant Acetyl-CoA Carboxylase 2 (ACC2) (O00763 whole entry): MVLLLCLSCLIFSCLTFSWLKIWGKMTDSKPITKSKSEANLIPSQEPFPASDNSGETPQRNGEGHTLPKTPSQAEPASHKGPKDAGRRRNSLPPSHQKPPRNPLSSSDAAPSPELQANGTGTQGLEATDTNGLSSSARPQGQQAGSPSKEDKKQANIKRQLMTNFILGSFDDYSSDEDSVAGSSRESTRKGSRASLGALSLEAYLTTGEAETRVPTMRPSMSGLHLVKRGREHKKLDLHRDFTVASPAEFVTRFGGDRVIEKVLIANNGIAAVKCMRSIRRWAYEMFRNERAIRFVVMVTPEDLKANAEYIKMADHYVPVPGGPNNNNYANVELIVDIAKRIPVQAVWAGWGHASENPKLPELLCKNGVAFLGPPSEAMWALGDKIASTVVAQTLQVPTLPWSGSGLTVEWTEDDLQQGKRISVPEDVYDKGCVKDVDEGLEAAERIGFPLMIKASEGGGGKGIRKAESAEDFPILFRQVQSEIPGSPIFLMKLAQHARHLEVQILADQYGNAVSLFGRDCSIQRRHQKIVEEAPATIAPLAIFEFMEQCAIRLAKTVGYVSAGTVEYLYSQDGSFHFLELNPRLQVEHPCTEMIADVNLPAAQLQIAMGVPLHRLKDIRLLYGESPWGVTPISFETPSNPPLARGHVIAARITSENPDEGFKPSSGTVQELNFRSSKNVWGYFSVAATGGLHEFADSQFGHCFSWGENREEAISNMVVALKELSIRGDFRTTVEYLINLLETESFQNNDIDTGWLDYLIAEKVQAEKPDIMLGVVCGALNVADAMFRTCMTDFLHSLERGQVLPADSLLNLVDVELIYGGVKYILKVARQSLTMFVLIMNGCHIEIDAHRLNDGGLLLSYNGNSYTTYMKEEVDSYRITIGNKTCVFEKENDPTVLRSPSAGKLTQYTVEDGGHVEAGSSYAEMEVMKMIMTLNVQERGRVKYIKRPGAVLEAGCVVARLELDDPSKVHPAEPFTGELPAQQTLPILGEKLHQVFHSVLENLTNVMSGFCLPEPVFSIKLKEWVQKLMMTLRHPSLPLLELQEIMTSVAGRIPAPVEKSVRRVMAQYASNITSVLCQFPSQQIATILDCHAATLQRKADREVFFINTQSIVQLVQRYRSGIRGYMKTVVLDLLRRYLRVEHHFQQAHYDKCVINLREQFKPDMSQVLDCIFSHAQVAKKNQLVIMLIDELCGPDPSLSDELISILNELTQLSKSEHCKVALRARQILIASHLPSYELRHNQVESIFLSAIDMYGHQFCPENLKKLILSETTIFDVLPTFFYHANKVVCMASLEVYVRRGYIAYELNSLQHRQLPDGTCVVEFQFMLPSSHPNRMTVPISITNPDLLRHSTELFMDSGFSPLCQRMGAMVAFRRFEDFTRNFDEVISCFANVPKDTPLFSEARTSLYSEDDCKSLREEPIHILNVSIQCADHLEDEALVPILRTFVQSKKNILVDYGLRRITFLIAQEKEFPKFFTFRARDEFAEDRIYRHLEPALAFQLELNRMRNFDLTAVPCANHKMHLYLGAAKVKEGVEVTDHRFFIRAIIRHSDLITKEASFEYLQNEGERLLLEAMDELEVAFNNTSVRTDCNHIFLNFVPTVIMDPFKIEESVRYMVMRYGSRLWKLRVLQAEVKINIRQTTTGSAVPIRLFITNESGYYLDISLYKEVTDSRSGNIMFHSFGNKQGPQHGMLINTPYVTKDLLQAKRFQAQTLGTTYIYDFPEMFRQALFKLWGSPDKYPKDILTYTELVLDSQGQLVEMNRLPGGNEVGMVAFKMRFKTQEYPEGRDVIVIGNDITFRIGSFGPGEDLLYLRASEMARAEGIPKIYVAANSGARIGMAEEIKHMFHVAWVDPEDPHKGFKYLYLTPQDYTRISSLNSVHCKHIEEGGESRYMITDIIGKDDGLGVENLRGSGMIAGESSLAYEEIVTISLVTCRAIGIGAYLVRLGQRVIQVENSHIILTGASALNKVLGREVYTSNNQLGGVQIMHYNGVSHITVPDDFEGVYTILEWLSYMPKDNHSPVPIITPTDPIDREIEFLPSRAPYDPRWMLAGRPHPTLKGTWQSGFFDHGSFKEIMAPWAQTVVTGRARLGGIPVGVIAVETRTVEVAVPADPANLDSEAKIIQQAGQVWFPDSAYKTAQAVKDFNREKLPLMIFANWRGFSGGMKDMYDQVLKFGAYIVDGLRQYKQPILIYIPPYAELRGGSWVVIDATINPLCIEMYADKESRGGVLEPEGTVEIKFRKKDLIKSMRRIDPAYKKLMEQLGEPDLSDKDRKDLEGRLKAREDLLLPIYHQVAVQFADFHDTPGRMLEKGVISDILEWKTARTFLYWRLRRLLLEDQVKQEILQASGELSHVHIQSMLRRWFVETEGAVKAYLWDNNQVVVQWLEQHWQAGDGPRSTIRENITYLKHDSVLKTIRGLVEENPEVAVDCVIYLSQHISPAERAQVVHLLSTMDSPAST

Compound `O=C(NC[C@H]1CC[C@H](CNC(=O)c2cc(-c3ccncc3)nc3ccccc23)CC1)OC1CCCC1` [Example 56, Cyclopentyl {[trans-4-({[(2-pyridin-4-ylquinolin-4-yl)carbonyl]amino}methyl)cyclo-hexyl]methyl}carbamate] has an IC50 [1] of 1.21 µM and an IC50 [2] of 0.4 µM.
`CC(C)OC(=O)NC[C@H]1CC[C@H](CNC(=O)c2cc(-c3ccncc3)nc3ccccc23)CC1` [Example 57, Isopropyl {[trans-4-({[(2-pyridin-4-ylquinolin-4-yl)carbonyl]amino}methyl)cyclo-hexyl]methyl}carbamate] showed an IC50 [1] of 1.91 µM and an IC50 [2] of 0.8 µM.
`CCCOC(=O)NC[C@H]1CC[C@H](CNC(=O)c2cc(-c3ccncc3)nc3ccccc23)CC1` [Example 58, Propyl {[trans-4-({[(2-pyridin-4-ylquinolin-4-yl)carbonyl]amino}methyl)cyclohexyl]-methyl}carbamate] showed an IC50 [1] of 2.1 µM and an IC50 [2] of 0.81 µM.
`COCCOC(=O)NC[C@H]1CC[C@H](CNC(=O)c2cc(-c3ccncc3)nc3ccccc23)CC1` [Example 59, 2-Methoxyethyl {[trans-4-({[(2-pyridin-4-ylquinolin-4-yl)carbonyl]amino}-methyl)cyclohexyl]methyl}carbamate] was tested, and the IC50 [1] was > 20 µM and the IC50 [2] was 4.67 µM.
`CCOC(=O)NC[C@H]1CC[C@H](CNC(=O)c2cc(-c3ccncc3)nc3ccccc23)CC1` [Example 60, Ethyl {[trans-4-({[(2-pyridin-4-ylquinolin-4-yl)carbonyl]amino}methyl)cyclo-hexyl]methyl}carbamate] was tested, and the IC50 [1] was 3.17 µM and the IC50 [2] was 1.82 µM.
For `CCOC(=O)NC[C@H]1CC[C@H](CNC(=O)c2cc(-c3ccc(C(N)=O)cc3)nc3ccccc23)CC1` [Example 61, Ethyl ({trans-4-[({[2-(4-carbamoylphenyl)quinolin-4-yl]carbonyl}amino)methyl]-cyclohexyl}methyl)carbamate], the IC50 [1] was 1 µM and the IC50 [2] was 0.55 µM.
`CCOC(=O)NC[C@H]1CC[C@H](CNC(=O)c2cc(-c3ccccc3)nc3ccccc23)CC1` [Example 62, Ethyl {[trans-4-({[(2-phenylquinolin-4-yl)carbonyl]amino}methyl)cyclohexyl]methyl}-carbamate] showed an IC50 [1] of 3.07 µM and an IC50 [2] of 2.77 µM.
Compound `CC(C)(C)OC(=O)NC[C@H]1CC[C@H](CNS(=O)(=O)c2cccc(-c3ccccc3)c2)CC1` [Example 63, tert-Butyl [(trans-4-{[(biphenyl-3-ylsulfonyl)amino]methyl}cyclohexyl)methyl]-carbamate] has an IC50 [1] of 4.58 µM and an IC50 [2] of 2.83 µM.
In the case of `CC(C)(C)OC(=O)NC[C@H]1CC[C@H](CNS(=O)(=O)c2ccc(Br)c(Br)c2)CC1` [Example 64, tert-Butyl {[trans-4-({[(3,4-dibromophenyl)sulfonyl]amino}methyl)cyclohexyl]-methyl}carbamate], the IC50 [1] is reported as > 20 µM and the IC50 [2] is reported as 3.72 µM.
`CC(C)(C)OC(=O)NC[C@H]1CC[C@H](CNS(=O)(=O)c2ccc(Cl)c(Cl)c2)CC1` [Example 65, tert-Butyl {[trans-4-({[(3,4-dichlorophenyl)sulfonyl]amino}methyl)cyclohexyl]methyl}-carbamate] was tested, and the IC50 [1] was > 20 µM and the IC50 [2] was 3.88 µM.
`CC(C)(C)OC(=O)NC[C@H]1CC[C@H](CNS(=O)(=O)c2cccc3cccnc23)CC1` [Example 66, tert-Butyl [(trans-4-{[(quinolin-8-ylsulfonyl)amino]methyl}cyclohexyl)methyl]-carbamate] gave an IC50 [1] of 6.79 µM and an IC50 [2] of 1.39 µM.
For `CC(C)(C)OC(=O)NC[C@H]1CC[C@H](CNS(=O)(=O)c2ccc(-c3ccccc3)cc2)CC1` [Example 67, tert-Butyl [(trans-4-{[(biphenyl-4-ylsulfonyl)amino]methyl}cyclohexyl)methyl]-carbamate], the IC50 [1] was > 20 µM and the IC50 [2] was 3.29 µM.
In the case of `CC(C)c1ccc(S(=O)(=O)NC[C@H]2CC[C@H](CNC(=O)OC(C)(C)C)CC2)cc1` [Example 68, tert-Butyl {[trans-4-({[(4-isopropylphenyl)sulfonyl]amino}methyl)cyclohexyl]methyl}-carbamate], the IC50 [1] is reported as > 20 µM and the IC50 [2] is reported as 2.62 µM.
For `Cc1nc(-c2ccc(S(=O)(=O)NC[C@H]3CC[C@H](CNC(=O)OC(C)(C)C)CC3)s2)cs1` [Example 70, tert-Butyl ({trans-4-[({[5-(2-methyl-1,3-thiazol-4-yl)-2-thienyl]sulfonyl}amino)-methyl]cyclohexyl}methyl)carbamate], the IC50 [1] was > 20 µM and the IC50 [2] was 2.85 µM.
`CC(=O)Nc1cccc2c(S(=O)(=O)NC[C@H]3CC[C@H](CNC(=O)OC(C)(C)C)CC3)cccc12` [Example 71, tert-Butyl {[trans-4-({[(5-acetamido-1-naphthyl)sulfonyl]amino}methyl)cyclohexyl]-methyl}carbamate] gave an IC50 [1] of 16.9 µM and an IC50 [2] of 2.45 µM.
In the case of `CC(C)(C)OC(=O)NC[C@H]1CC[C@H](CNS(=O)(=O)c2ccc(-c3ccno3)s2)CC1` [Example 72, tert-Butyl {[trans-4-({[(5-isoxazol-5-yl-2-thienyl)sulfonyl]amino}methyl)cyclo-hexyl]methyl}carbamate], the IC50 [1] is reported as > 20 µM and the IC50 [2] is reported as 2.48 µM.
For `CC(=O)Nc1ccc(S(=O)(=O)NC[C@H]2CC[C@H](CNC(=O)OC(C)(C)C)CC2)cc1` [Example 73, tert-Butyl {[trans-4-({[(4-acetamidophenyl)sulfonyl]amino}methyl)cyclohexyl]-methyl}carbamate], the IC50 [1] was > 20 µM and the IC50 [2] was 5.03 µM.
With `CC(C)(C)OC(=O)NC[C@H]1CC[C@H](CNS(=O)(=O)c2ccsc2)CC1` [Example 74, tert-Butyl [(trans-4-{[(3-thienylsulfonyl)amino]methyl}cyclohexyl)methyl]-carbamate] the IC50 [1] was > 20 µM and the IC50 [2] was 9.49 µM.
In the case of `Cc1nc(-c2cccc(S(=O)(=O)NC[C@H]3CC[C@H](CNC(=O)OC(C)(C)C)CC3)c2)no1` [Example 75, tert-Butyl ({trans-4-[({[3-(5-methyl-1,2,4-oxadiazol-3-yl)phenyl]sulfonyl}amino)-methyl]cyclohexyl}methyl)carbamate], the IC50 [1] is reported as > 20 µM and the IC50 [2] is reported as 4.27 µM.
In the case of `CC(C)(C)OC(=O)NC[C@H]1CC[C@H](CNS(=O)(=O)c2cccc3cnccc23)CC1` [Example 76, tert-Butyl [(trans-4-{[(isoquinolin-5-ylsulfonyl)amino]methyl}cyclohexyl)-methyl]carbamate], the IC50 [1] is reported as > 20 µM and the IC50 [2] is reported as 3.62 µM.
With `CC(=O)Nc1nc(C)sc1S(=O)(=O)NC[C@H]1CC[C@H](CNC(=O)OC(C)(C)C)CC1` [Example 77, tert-Butyl {[trans-4-({[(4-acetamido-2-methyl-1,3-thiazol-5-yl)sulfonyl]amino}methyl)-cyclohexyl]methyl}carbamate] the IC50 [1] was 9.32 µM and the IC50 [2] was 3.62 µM.
`CC(C)(C)OC(=O)NC[C@H]1CC[C@H](CNS(=O)(=O)c2ccc3ncsc3c2)CC1` [Example 78, tert-Butyl [(trans-4-{[(1,3-benzothiazol-6-ylsulfonyl)amino]methyl}cyclohexyl)-methyl]carbamate] gave an IC50 [1] of 6.55 µM and an IC50 [2] of 3.14 µM.
In the case of `CCN(C[C@H]1CC[C@H](CNC(=O)OC(C)(C)C)CC1)S(=O)(=O)c1ccc2ccccc2c1` [Example 79, tert-Butyl [(trans-4-{[ethyl(2-naphthylsulfonyl)amino]methyl}cyclohexyl)methyl]-carbamate], the IC50 [1] is reported as > 20 µM and the IC50 [2] is reported as 5.4 µM.
With `CC(C)(C)OC(=O)NC[C@H]1CC[C@H](CN(CCc2ccccc2)S(=O)(=O)c2ccc3ccccc3c2)CC1` [Example 80, tert-Butyl [(trans-4-{[(2-naphthylsulfonyl)(2-phenylethyl)amino]methyl}cyclohexyl)-methyl]carbamate] the IC50 [1] was > 20 µM and the IC50 [2] was 3.01 µM.
In the case of `CCOC(=O)CN(C[C@H]1CC[C@H](CNC(=O)OC(C)(C)C)CC1)S(=O)(=O)c1ccc2ccccc2c1` [Example 81, Ethyl N-[(trans-4-{[(tert-butoxycarbonyl)amino]methyl}cyclohexyl)methyl]-N-(2-naphthylsulfonyl)glycinate], the IC50 [1] is reported as > 20 µM and the IC50 [2] is reported as 3.03 µM.
`CC(C)(C)OC(=O)NC[C@H]1CC[C@H](CN(CC2CCOCC2)S(=O)(=O)c2ccc3ccccc3c2)CC1` [Example 82, tert-Butyl [(trans-4-{[(2-naphthylsulfonyl)(tetrahydro-2H-pyran-4-ylmethyl)amino]-methyl}cyclohexyl)methyl]carbamate] was tested, and the IC50 [1] was > 20 µM and the IC50 [2] was 3.17 µM.
`CC(C)(C)OC(=O)NC[C@H]1CC[C@H](CN(CC#N)S(=O)(=O)c2ccc3ccccc3c2)CC1` [Example 83, tert-Butyl [(trans-4-{[(cyanomethyl)(2-naphthylsulfonyl)amino]methyl}cyclohexyl)-methyl]carbamate] was tested, and the IC50 [1] was > 20 µM and the IC50 [2] was 3.27 µM.
In the case of `C=CCN(C[C@H]1CC[C@H](CNC(=O)OC(C)(C)C)CC1)S(=O)(=O)c1ccc2ccccc2c1` [Example 84, tert-Butyl [(trans-4-{[allyl(2-naphthylsulfonyl)amino]methyl}cyclohexyl)methyl]-carbamate], the IC50 [1] is reported as > 20 µM and the IC50 [2] is reported as 4.59 µM.
In the case of `CCCCN(C[C@H]1CC[C@H](CNC(=O)OC(C)(C)C)CC1)S(=O)(=O)c1ccc2ccccc2c1` [Example 85, tert-Butyl [(trans-4-{[butyl(2-naphthylsulfonyl)amino]methyl}cyclohexyl)methyl]-carbamate], the IC50 [1] is reported as > 20 µM and the IC50 [2] is reported as 6.69 µM.
`CC(C)(C)OC(=O)NC[C@H]1CC[C@H](CN(CC(F)(F)F)S(=O)(=O)c2ccc3ccccc3c2)CC1` [Example 86, tert-Butyl [(trans-4-{[(2-naphthylsulfonyl)(2,2,2-trifluoroethyl)amino]methyl}cyclo-hexyl)methyl]carbamate] was tested, and the IC50 [1] was > 20 µM and the IC50 [2] was 6.98 µM.
In the case of `CCCN(C[C@H]1CC[C@H](CNC(=O)OC(C)(C)C)CC1)S(=O)(=O)c1ccc2ccccc2c1` [Example 87, tert-Butyl [(trans-4-{[(2-naphthylsulfonyl)(propyl)amino]methyl}cyclohexyl)methyl]-carbamate], the IC50 [1] is reported as > 20 µM and the IC50 [2] is reported as 8.71 µM.
